“And” between values parts separate entries of the source, which are not always exact repeats. Identical values can stand only once. Like-named read-outs stand apart in the source and are kept apart here.
What was measured:
H1975 cells = experiment: Immunofluorescence of β-tubulin / microtubules; assay type: cell-based, human; settings: H1975, 48 h; CA-4 0.3 µM, vincristine 0.5 µM, taxol 0.1 µM, LASSBio-1586 10 µM, LASSBio-1735 0.5 µM, LASSBio-2070 4.5 µM, LASSBio-2074 20 µM
Procedure: Antitubulin agents have been broadly classified into destabilizing or stabilizing agents, based on their interference with the dynamic balance of polymerization or depolymerization of microtubules. […] CA-4 (1, 0.3 µM), vincristine (0.5 µM) and taxol (0.1 µM) were used as standard controls.
After incubation, cells were rinsed with PBS and fixed with 4% paraformaldehyde in PBS for 10 min at room temperature. They were then permeabilized with 0.5% Triton-X 100 in PBS 3 times for 10 min. The same solution was used for all subsequent washing steps. Cells were incubated with an anti-beta-tubulin antibody for 1 h at 37 °C. After incubation, cells were washed for 30 min and incubated with Alexa Fluor® 488, conjugated secondary antibody for 1 h at 37 °C, and nuclei were labeled with DAPI (0.1 mg/mL in 0.9% NaCl).
Live cultured cells grown in coverslips were mounted in Prolong Gold solution (Molecular Probes, USA) and were imaged on a Leica TCS SPE confocal microscope (Leica Microsystems, Germany) using 63x 1.3 N.A. oil immersion and the images acquired by the LAS X software. Cell morphology, focusing on the microtubules was analyzed, qualitatively, using the public domain NIH ImageJ Program (developed at the National Institutes of the USA Health and available on the internet at http://imagej.nih.gov/ij/ (accessed on 1 September 2021).

[1] = MTT cell viability assay, GM16000 lymphocytes; assay type: cell-based; settings: GM16000 lymphocyte cells (non-tumor), human lymphocytes, value (95% CI)
MCF-7 = experiment: MTT cell viability assay, MCF-7; assay type: cell-based, human; settings: Homo sapiens, MCF7, 72 h, MTT, 72 h; value (95% CI); read-out: CC50 (µM) (CI) MCF-7
Procedure: (§1) The cytotoxic activity of compounds 3–13 was determined based on an MTT assay against different human tumor cell lines, using LASSBio-1586 (2), LASSBio-1735 (3), CA-4 (1) and pelitinib as standards (Table 2). To determine the cytotoxic selectivity index, compounds were also evaluated toward human lymphocytes (Table 3).
(§2) The target compounds were tested (0.0001–100 µM) for cytotoxic activity against selected human cancer cell lines, such as HL-60 (acute promyelocytic leukemia), MCF-7 (mammary adenocarcinoma), PC-3 (prostate adenocarcinoma), H1975 (non-small cell lung cancer—EGFR^L858R+T790M), PC-9 (non-small cell lung cancer—EGFR^L858R) H292 (mucoepidermoid pulmonary carcinoma—EGFR wild type), LoVo (colorectal adenocarcinoma—EGFRwild type) and GM16000 (lymphocyte). All the human cancer cell lines were purchased from Cell Bank of Rio de Janeiro—BCRJ. They were cultured in RPMI 1640 medium with 10% (v/v) FBS, 2 mM glutamine, at 37 °C in a humidified incubator containing 5% CO2.
(§3) The cytotoxicity of the compounds was evaluated by the MTT assay. The cell lines were cultured in 96 well plates for 72 h with a density of 0.1 × 10^5 cells/mL to 0.7 × 10^5 cells/mL to adherent cell lines. For lymphocytic lines, a density of 0.3 × 10^6 cells/mL was used. Afterwards they were treated with varying concentrations of the target compounds 2–12 (0.0001–100 µM), CA-4 (1) and pelitinib at 37 °C, in triplicate. The medium was incubated with 20 μL of 5 mg/mL MTT solution for 3 h in a humidified incubator containing 5% CO2 [11].
(§4) The purple-colored formazan crystals formed in the wells were dissolved in DMSO and their absorbance was measured at 595 nm with a microplate reader (SpectraMax M5, Molecular Devices).

LoVo [2] = experiment: MTT cell viability assay, LoVo; assay type: cell-based; settings: Homo sapiens, 48 h, value (95% CI)
PC-9 = experiment: MTT cell viability assay, PC-9; assay type: cell-based, human; settings: MTT, value (95% CI), read-out: CC50 (µM) (CI) PC-9
Procedure: as §1, §2
as §3, with “The cell lines were cultured in 96 well plates for 72 h with a density of 0.1 × 10^5 cells/mL to 0.7 × 10^5 cells/mL to adherent cell lines.” left out
as §4

PC-3 = experiment: MTT cell viability assay, PC-3; assay type: cell-based; settings: Homo sapiens, PC-3; MTT, 72 h; value (95% CI); read-out: CC50 (µM) (CI) PC-3
Procedure: as §1, §2, §3, §4

[3] = MTT cell viability assay, GM16000 lymphocytes; assay type: cell-based; settings: GM16000 lymphocyte cells (non-tumor), human lymphocytes, value (95% CI); remark: listed apart in the source
Procedure: as §1
To establish the cytotoxic selective index (SI) of LASSBio-1586 homologs, they were studied on human lymphocyte cell lines (GM16000), using the MTT assay. The SI was calculated by the ratio between the CC50 on tumor and non-tumor cell lines. Although there is no consensus, values of SI ≥ 10 is considered satisfactory to assign safety to a new cytotoxic agent. This value means that the compound is more than ten times more cytotoxic to the tumor cell line than to normal cell line.
as §2, §3, §4

LoVo [4] = experiment: MTT cell viability assay, LoVo; assay type: cell-based; settings: Homo sapiens, MTT, 72 h, value (95% CI), read-out: CC50 (µM) (CI) LoVo
Procedure: as §1, §2, §3, §4

H1975 = experiment: MTT cell viability assay, H1975; assay type: cell-based, human; settings: MTT, value (95% CI), read-out: CC50 (µM) (CI) H1975
Procedure: as §1, §2
as §3, with “The cell lines were cultured in 96 well plates for 72 h with a density of 0.1 × 10^5 cells/mL to 0.7 × 10^5 cells/mL to adherent cell lines.” left out
as §4

H292 = experiment: MTT cell viability assay, H292; assay type: cell-based, human; settings: MTT, value (95% CI), read-out: CC50 (µM) (CI) H292
Procedure: as §1, §2
as §3, with “The cell lines were cultured in 96 well plates for 72 h with a density of 0.1 × 10^5 cells/mL to 0.7 × 10^5 cells/mL to adherent cell lines.” left out
as §4

HL-60 = experiment: MTT cell viability assay, HL-60; assay type: cell-based, human; settings: Homo sapiens, MTT, value (95% CI), read-out: CC50 (µM) (CI) HL-60
Procedure: as §1, §2
as §3, with “The cell lines were cultured in 96 well plates for 72 h with a density of 0.1 × 10^5 cells/mL to 0.7 × 10^5 cells/mL to adherent cell lines.” left out
as §4

[5] = Homo sapiens, NCI-H1975, 48 h, 48 h
[6] = Homo sapiens, NCI-H1975, 72 h, 72 h
[7] = Homo sapiens, NCI-H292, 48 h, 48 h
[8] = Homo sapiens, NCI-H292, 72 h, 72 h

| melting point | Compound | cell morphology after treatment (H1975 cells) | CC50 at 48 h [1] [µM] | CC50 (MCF-7) [µM] | CC50 (LoVo [2]) [µM] | CC50 (PC-9; Homo sapiens, PC-9, 48 h, 48 h) [µM] | CC50 (PC-9; Homo sapiens, PC-9, 72 h, 72 h) [µM] | CC50 (PC-3) [µM] | CC50 at 72 h [3] [µM] | CC50 (LoVo [4]) [µM] | CC50 (H1975; [5]) [µM] | CC50 (H1975; [6]) [µM] | CC50 (H292; [7]) [µM] | CC50 (H292; [8]) [µM] | CC50 (HL-60; HL-60, 48 h, 48 h) [µM] | CC50 (HL-60; HL-60, 72 h, 72 h) [µM] | CC50 (PC-9; 48 h) [µM] | CC50 (H1975; 48 h) [µM] | CC50 (H292; 48 h) [µM] |
| --- | --- | --- | --- | --- | --- | --- | --- | --- | --- | --- | --- | --- | --- | --- | --- | --- | --- | --- | --- |
|  | CC(=O)O[C@H]1C(=O)[C@@]2(C)[C@H]([C@H](OC(=O)c3ccccc3)[C@]3(O)C[C@H](OC(=O)[C@H](O)[C@@H](NC(=O)c4ccccc4)c4ccccc4)C(C)=C1C3(C)C)[C@]1(OC(C)=O)CO[C@@H]1C[C@@H]2O [taxol, reference compound] | more spread-out morphology |  |  |  |  |  |  |  |  |  |  |  |  |  |  |  |  |  |
|  | CCCCN(/N=C/c1ccccc1)C(=O)c1cc(OC)c(OC)c(OC)c1 [LASSBio-2121 (6), (E)-N’-benzylidene-N-butyl-3,4,5-trimethoxybenzohydrazide] |  | 1.2 | 0.5 | 2 | 0.327 | 0.096 | 0.696 | 0.961 | 0.5 | 1.71 | 2.94 | 0.215 | 9.55 | 2.61 | 2.17 |  |  |  |
| 133.91 °C and 133 to 134 °C | C#CCN(/N=C/c1ccccc1)C(=O)c1cc(OC)c(OC)c(OC)c1 [LASSBio-2072 (9), (E)-N’-benzylidene-3,4,5-trimethoxy-N-(prop-2-yn-1-yl)benzohydrazide] |  | 2.52 | 2.32 | 3.05 | 1.27 | 0.46 | 2.25 | 0.612 | 0.399 | 5.34 | 3.98 | 0.45 | 3.14 | 5.85 | 0.158 |  |  |  |
| 64.47 °C and 64 to 65 °C | C=CCN(/N=C/c1ccccc1)C(=O)c1cc(OC)c(OC)c(OC)c1 [LASSBio-2069 (8), (E)-N-allyl-N’-benzylidene-3,4,5-trimethoxybenzohydrazide] |  | 0.095 | 1.6 | 0.808 | 0.276 | 0.387 | 0.462 | 0.83 | 0.298 | 1.65 | 3.74 | 0.154 | 0.778 | 0.526 | 1.35 |  |  |  |
| 83.94 °C and 83 to 84 °C | CCN(/N=C/c1ccccc1)C(=O)c1cc(OC)c(OC)c(OC)c1 [LASSBio-2071 (4), (E)-N’-benzylidene-N-ethyl-3,4,5-trimethoxybenzohydrazide] |  | 2 | 1.24 | 3.05 |  | 0.384 | 1.66 | 5.13 | 0.301 |  | 4.86 |  | 2.55 | 6.03 | 0.231 | 0.881 | 4.91 | 0.3 |
